Columns and labels:
E. coli NrdR (EcoNrdR) [1] = target: T1, E. coli NrdR (EcoNrdR) (Escherichia coli, UniProt P0A8D0); test: ITC, one set of sites; type: binding
T1 construct: full-length wild type, C-terminal His6 tag (pET30a(+)), E. coli BL21(DE3); tag not reported removed; co-purified nucleotides stripped for ITC (apo-NrdR); apo dimer, tetramer with ATP-dATP or ADP-dATP; SeMet version for 9FVR
Source text: ITC, one set of sites on E. coli NrdR (EcoNrdR)

E. coli NrdR (EcoNrdR) [2] = target: T1, E. coli NrdR (EcoNrdR); test: X-ray crystal structure, […] Å; type: binding; settings: with dATP and Mg2+; inner site

T1 sequence (P0A8D0 whole entry): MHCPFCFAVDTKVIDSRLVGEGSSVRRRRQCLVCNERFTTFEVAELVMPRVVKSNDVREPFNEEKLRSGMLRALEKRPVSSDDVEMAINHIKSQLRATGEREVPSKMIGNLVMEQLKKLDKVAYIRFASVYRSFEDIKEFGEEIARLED

Compound | Kd (E. coli NrdR (EcoNrdR) [1]) [nM] | X-ray crystal structure, 2.33 Å (E. coli NrdR (EcoNrdR) [2])
Nc1ncnc2c1ncn2[C@@H]1O[C@H](COP(=O)(O)OP(=O)(O)O)[C@@H](O)[C@H]1O [ADP] | 343 ± 19 | –
Nc1ncnc2c1ncn2[C@@H]1O[C@H](COP(=O)(O)OP(=O)(O)NP(=O)(O)O)[C@@H](O)[C@H]1O [AMPPNP] | – | In complex with dATP and AMPPNP, EcoNrdR is a tetramer
Nc1ncnc2c1ncn2[C@@H]1O[C@H](COP(=O)(O)OP(=O)(O)OP(=O)(O)O)[C@@H](O)[C@H]1O [ATP] | 346 ± 93 | –
Nc1ncnc2c1ncn2[C@H]1C[C@H](O)[C@@H](COP(=O)(O)OP(=O)(O)OP(=O)(O)O)O1 [dATP] | 610 ± 231 | –
